These results are taken from ChEMBL document CHEMBL5321258, “Anticancer evaluation of benzofuran derivatives linked to dipiperazine moiety” (Bioorg Med Chem Lett, 2023).

The subject of assay [1] is A549. The experiment in a line: Anticancer activity against human A549 cells assessed as inhibition of cell proliferation by SRB assay. Format: functional, cell-based.
The subject of assay [2] is HeLa. The experiment in a line: Anticancer activity against human HeLa cells assessed as inhibition of cell proliferation by SRB assay. Format: functional, cell-based.
The test system of assay [3] is HeLa. The experiment in a line: Anticancer activity against human Hela cells assessed as inhibition rate at 30 uM by SRB assay relative to control. Format: functional.
Assay [4] concerns HeLa. The experiment in a line: Anticancer activity against human Hela cells assessed as inhibition rate at 10 uM by SRB assay relative to control. It counts as functional. In general terms: In SRB staining, fixed cells bind dye roughly in proportion to their protein.
Assay [5] concerns A549. The experiment in a line: Anticancer activity against human A549 cells assessed as inhibition rate at 30 uM by SRB assay relative to control. It counts as functional.
Assay [6] relates to A549. The experiment in a line: Anticancer activity against human A549 cells assessed as inhibition rate at 10 uM by SRB assay relative to control. It counts as functional.

Usually IC50 stands for the midpoint of a concentration-inhibition curve. A word on the inhibition: it is the relative decrease from the control value, in per cent. In the case of `CCN(CC)c1ccc2cc(C(O)c3ccc(OCCN4CCN(C(=O)CN5CCN(C(=O)c6ccccc6F)CC5)CC4)cc3)oc2c1` (stereo not given), the half-inhibitory concentration (IC50) is 8.63 µM in assay [1] and 4.72 µM in assay [2]. The values for the inhibition at 30 µM in assay [3] and in assay [5] were 92% and 75.6%, respectively. In addition, the inhibition at 10 µM stood at 79% in assay [4] and 55.3% in assay [6].
In the case of `CCN(CC)c1ccc2cc(C(O)c3ccc(OCCN4CCN(C(=O)CN5CCN(C(=O)c6ccccc6C(F)(F)F)CC5)CC4)cc3)oc2c1` (stereo not given), the figures for the inhibition at 30 µM in assay [3] and in assay [5] were 49.8% and 57.8%, respectively. The inhibition at 10 µM is 30.6% in assay [4] and 43.6% in assay [6].
The matching figures for `CCN(CC)c1ccc2cc(C(=O)c3ccc(OCCN4CCN(C(=O)CN5CCN(C(=O)c6cc(Cl)cc(Cl)c6)CC5)CC4)cc3)oc2c1`: 41.7%, 49.3%, 20.1% and 39.8%.
Turning to `CCN(CC)c1ccc2cc(C(=O)c3ccc(OCCN4CCN(C(=O)CN5CCN(C(=O)c6ccccc6C(F)(F)F)CC5)CC4)cc3)oc2c1`, the figures for the inhibition at 30 µM in assay [3] and in assay [5] were 44.1% and 34.5%, respectively. The values for the inhibition at 10 µM in assay [4] and in assay [6] were 25.5% and 27.3%, respectively.
For `CCN(CC)c1ccc2cc(C(=O)c3ccc(OCCN4CCN(C(=O)CN5CCN(C(=O)c6cccc(C(F)(F)F)c6)CC5)CC4)cc3)oc2c1`, in that order: 70.1%, 57.8%, 27.4% and 49.3%.
The matching figures for `CCN(CC)c1ccc2cc(C(O)c3ccc(OCCN4CCN(C(=O)CN5CCN(C(=O)c6ccc(Br)cc6C(F)(F)F)CC5)CC4)cc3)oc2c1` (stereo not given): 9.7%, 72.3%, -1.6% and 69.7%.
For `CCN(CC)c1ccc2cc(C(O)c3ccc(OCCN4CCN(C(=O)CN5CCN(C(=O)c6ccc(C)cc6)CC5)CC4)cc3)oc2c1` (stereo not given), the results for the IC50 in assay [1] and in assay [2] were 1.54 µM and above 30 µM, respectively. Besides, the inhibition at 30 µM in assay [3] turned out to be 35.9%; in assay [5], 97.2%. Besides, the inhibition at 10 µM in assay [4] worked out at 15.9%; in assay [6], 77.9%.
As for `C=C(C)C(=O)N1CCN(CC(=O)N2CCN(CCOc3ccc(C(=O)c4cc5ccc(N(CC)CC)cc5o4)cc3)CC2)CC1`, the values for the inhibition at 30 µM in assay [3] and in assay [5] were 3.2% and 69.8%, respectively. Also, the inhibition at 10 µM in assay [4] is -2.1%; in assay [6], 36.1%.
The matching figures for `CCN(CC)c1ccc2cc(C(=O)c3ccc(OCCN4CCN(C(=O)CN5CCN(C(=O)c6ccc([N+](=O)[O-])cc6)CC5)CC4)cc3)oc2c1`: 24%, 22.9%, 17.2% and 16.5%.
For the compound `CCN(CC)c1ccc2cc(C(=O)c3ccc(OCCN4CCN(C(=O)CN5CCN(C(=O)c6ccc(C)cc6)CC5)CC4)cc3)oc2c1`, the IC50 is 9.17 µM in assay [1] and 7.09 µM in assay [2]. Also, the inhibition at 30 µM in assay [3] was 90.1%; in assay [5], 62.4%. Besides, the inhibition at 10 µM in assay [4] is 61.4%; in assay [6], 54.3%.
Turning to `CCN(CC)c1ccc2cc(C(=O)c3ccc(OCCN4CCN(C(=O)CN5CCN(C(=O)c6ccc(C(F)(F)F)cc6)CC5)CC4)cc3)oc2c1`, the half-inhibitory concentration (IC50) in assay [1] was 7.02 µM; in assay [2] it was 8.64 µM. For the same compound, the inhibition at 30 µM in assay [3] turned out to be 94.9%; in assay [5], 77.9%. The inhibition at 10 µM in assay [4] turned out to be 50.7%; in assay [6], 54.8%.
`CCN(CC)c1ccc2cc(C(=O)c3ccc(OCCN4CCN(C(=O)CN5CCN(C(=O)c6cc(F)c(F)c(F)c6F)CC5)CC4)cc3)oc2c1`: the inhibition at 30 µM in assay [3] stood at 86.6%; in assay [5] it was 61.1%. For the same compound, the inhibition at 10 µM in assay [4] came to 28%; in assay [6], 20%.
Turning to `C=CC(=O)N1CCN(CC(=O)N2CCN(CCOc3ccc(C(O)c4cc5ccc(N(CC)CC)cc5o4)cc3)CC2)CC1` (stereo not given), the concentration for half-maximal inhibition (IC50) in assay [1] turned out to be 9.18 µM; in assay [2], 6.85 µM. Also, the inhibition at 30 µM in assay [3] is 90.7%; in assay [5], 64%. The inhibition at 10 µM in assay [4] stood at 53.8%; in assay [6], 51.9%.
As for `CCN(CC)c1ccc2cc(C(=O)c3ccc(OCCN4CCN(C(=O)CN5CCN(C(=O)c6ccc(Cl)cc6)CC5)CC4)cc3)oc2c1`, the concentration for half-maximal inhibition (IC50) was determined as 24.9 µM in assay [1] and 14.8 µM in assay [2]. Also, the figures for the inhibition at 30 µM in assay [3] and in assay [5] were 89% and 78.1%, respectively. The inhibition at 10 µM is 47.5% in assay [4] and 22.9% in assay [6].
Take `CCN(CC)c1ccc2cc(C(O)c3ccc(OCCN4CCN(C(=O)CN5CCN(C(=O)c6ccc([N+](=O)[O-])cc6)CC5)CC4)cc3)oc2c1` (stereo not given): the inhibition at 30 µM in assay [3] amounted to 28.3%; in assay [5] it was 33%. Also, the inhibition at 10 µM in assay [4] is 17.2%; in assay [6], 19.2%.
Take `CCc1ccc(C(=O)N2CCN(CC(=O)N3CCN(CCOc4ccc(C(O)c5cc6ccc(N(CC)CC)cc6o5)cc4)CC3)CC2)cc1` (stereo not given): the inhibition at 30 µM in assay [3] worked out at 75.2%; in assay [5] it was 73.2%. The inhibition at 10 µM in assay [4] came to 36.1%; in assay [6], 47.9%.
For `CCN(CC)c1ccc2cc(C(=O)c3ccc(OCCN4CCN(C(=O)CN5CCN(C(=O)c6ccc(F)cc6)CC5)CC4)cc3)oc2c1`, in that order: 57%, 45.3%, 26% and 29%.
The matching figures for `CCN(CC)c1ccc2cc(C(=O)c3ccc(OCCN4CCN(C(=O)CN5CCN(C(=O)c6ccc(Br)cc6C(F)(F)F)CC5)CC4)cc3)oc2c1`: 62.2%, 53.8%, 33.2% and 41.4%.
With `CCN(CC)c1ccc2cc(C(=O)c3ccc(OCCN4CCN(C(=O)CN5CCN(C(=O)c6ccccc6F)CC5)CC4)cc3)oc2c1`, the inhibition at 30 µM amounted to 56.9% in assay [3] and 76.9% in assay [5]. Also, the inhibition at 10 µM in assay [4] is 31.4%; in assay [6], 66.4%.
For `C=CC(=O)N1CCN(CC(=O)N2CCN(CCOc3ccc(C(=O)c4cc5ccc(N(CC)CC)cc5o4)cc3)CC2)CC1`, the inhibition at 30 µM came to 32.1% in assay [3] and 9.3% in assay [5]. Moreover, the inhibition at 10 µM in assay [4] is 18.6%; in assay [6], 2.3%.
Regarding `C=C(C)C(=O)N1CCN(CC(=O)N2CCN(CCOc3ccc(C(O)c4cc5ccc(N(CC)CC)cc5o4)cc3)CC2)CC1` (stereo not given), the inhibition at 30 µM in assay [3] was 30.5%; in assay [5] it was 55.5%. Further, the inhibition at 10 µM in assay [4] came to 5.4%; in assay [6] it was 22.2%.
For `CCN(CC)c1ccc2cc(C(O)c3ccc(OCCN4CCN(C(=O)CN5CCN(C(=O)c6ccc(OC)cc6)CC5)CC4)cc3)oc2c1` (stereo not given), in that order: 66.7%, 63.5%, 42% and 55.2%.
